The test system of this test is Human primary T cells. The test is described as follows: IL-2 ELISA, Human Primary T Cell, Anti-CD3+CD28+ (Whole Cell Assay). To be noted: IL-2 by ELISA, human primary T cells pre-incubated with compound 1 hr, stimulated with αCD3 and αCD28, 24 hours. The format is cell-based. As for the experimental part:
IL-2 ELISA, Human Primary T Cell, Anti-CD3+CD28+ (Whole Cell Assay)
Human primary T cell isolation and culture: Human primary T cells were prepared as follows. Whole blood was obtained from a healthy volunteer, mixed 1:1 with PBS, layered on to Ficoll Hypaque (Amersham Pharmacia Biotech, Piscataway, N.J., Catalog #17-1440-03) in 2:1 blood/PBS:ficoll ratio and centrifuged for 30 min at 4° C. at 1750 rpm. The cells at the serum: ficoll interface were recovered and washed twice with 5 volumes of PBS. These freshly isolated human peripheral blood mononuclear cells were cultured in Yssel's medium containing 40 U/mL IL2 in a flask pre-coated with 1 μg/mL αCD3 and 5 μg/mL αCD28 (Anti-Human CD3, BD Pharmingen Catalog #555336, Anti-Human CD28, Beckman Coulter Catalog #1M1376). The cells were stimulated for 3-4 days, then transferred to a fresh flask and maintained in RPMI (RPMI-1640 with L-Glutamine; Mediatech, Inc., Herndon Va., cat. #10-040-CM) with 10% FBS and 40 U/mL IL-2. The primary T-cells were then washed twice with PBS to remove the IL-2.
Primary T cell stimulation and IL2 ELISA: Human primary T cells (100,000 cells per well) were pre-incubated with or without test compound in Yssel's medium for 1 hr at 37° C. Cells were then stimulated by transferring them to round-bottom 96-well plates pre-coated with 1 μg/ml αCD3 and 5 μg/ml αCD28. For counter assay, cells were instead stimulated by adding 8× stock solutions of PMA and ionomycin in Yssels (for final concentrations of 0.5 ng/ml PMA and 0.1 μM ionomycin, both from Calbiochem). Cells were incubated at 37° C. for 24 hours before 100 μL supernatants were harvested for quantification of IL-2 by ELISA using Human IL-2 Duoset ELISA Kit from R and D Systems, Cat. # DY202E.
(In general: ELISA stands for enzyme-linked immunosorbent assay.)

Usually IC50 stands for the point on the concentration scale where inhibition reaches its midpoint. Consider `CC1(C)CC(Nc2nc(Nc3cc(-n4cnnn4)c(C4CC4)cc3F)ncc2C#N)CC(C)(C)N1` [Compound I-2, 2-(4-Cyclopropyl-2-fluoro-5-tetrazol-1-yl-phenylamino)-4-(2,2,6,6-tetramethyl-piperidin-4-ylamino)-pyrimidine-5-carbonitrile], for which the IC50 is less than 250 nM.

For the compound `CC1(C)CC(Nc2nc(Nc3cc(-n4cnnn4)c(C4CC4)cc3F)ncc2C(N)=O)CC(C)(C)N1` [Compound I-3, 2-(4-Cyclopropyl-2-fluoro-5-tetrazol-1-yl-phenylamino)-4-(2,2,6,6-tetramethyl-piperidin-4-ylamino)-pyrimidine-5-carboxylic acid amide], the IC50 lay within 500 to 1000 nM.

As to `CC1(C)CC(Nc2nc(Nc3cc(F)c(C4CC4)c(-n4cnnn4)c3)ncc2C#N)CC(C)(C)N1` [Compound I-4, 2-(4-Cyclopropyl-3-fluoro-5-tetrazol-1-yl-phenylamino)-4-(2,2,6,6-tetramethyl-piperidin-4-ylamino)-pyrimidine-5-carbonitrile], the IC50 was less than 250 nM.

Regarding `CC1(C)CC(Nc2nc(Nc3cc(F)c(C4CC4)c(-n4cnnn4)c3)ncc2F)CC(C)(C)N1` [Compound I-5, N2-(4-Cyclopropyl-3-fluoro-5-tetrazol-1-yl-phenyl)-5-fluoro-N4-(2,2,6,6-tetramethyl-piperidin-4-yl)-pyrimidine-2,4-diamine], the IC50 is less than 250 nM.

With `CC1(C)CC(Nc2nc(Nc3cc(C4CC4)c(F)c(-n4cnnn4)c3)ncc2C#N)CC(C)(C)N1` [Compound I-6, 2-(3-Cyclopropyl-4-fluoro-5-tetrazol-1-yl-phenylamino)-4-(2,2,6,6-tetramethyl-piperidin-4-ylamino)-pyrimidine-5-carbonitrile], the IC50 was less than 250 nM.

For the compound `CC1(C)CC(Nc2nc(Nc3cc(C4CC4)c(F)c(-n4cnnn4)c3)ncc2F)CC(C)(C)N1` [Compound I-7, N2-(3-Cyclopropyl-4-fluoro-5-tetrazol-1-yl-phenyl)-5-fluoro-N4-(2,2,6,6-tetramethyl-piperidin-4-yl)-pyrimidine-2,4-diamine], the IC50 is less than 250 nM.

As to `CC(C)c1cc(F)c(Nc2ncc(C#N)c(NC3CC(C)(C)NC(C)(C)C3)n2)cc1-n1cnnn1` [Compound I-8, 2-(2-Fluoro-4-isopropyl-5-tetrazol-1-yl-phenylamino)-4-(2,2,6,6-tetramethyl-piperidin-4-ylamino)-pyrimidine-5-carbonitrile], the IC50 is less than 250 nM.

Regarding `CC(C)c1ccc(Nc2ncc(F)c(NC3CC(C)(C)NC(C)(C)C3)n2)cc1-n1cnnn1` [Compound I-9, 5-Fluoro-N2-(4-isopropyl-3-tetrazol-1-yl-phenyl)-N4-(2,2,6,6-tetramethyl-piperidin-4-yl)-pyrimidine-2,4-diamine], the IC50 was less than 250 nM.

In the case of `CC(C)c1ccc(Nc2ncc(C(N)=O)c(NC3CC(C)(C)NC(C)(C)C3)n2)cc1-n1cnnn1` [Compound I-10, 2-(4-Isopropyl-3-tetrazol-1-yl-phenylamino)-4-(2,2,6,6-tetramethyl-piperidin-4-ylamino)-pyrimidine-5-carboxylic acid amide], the IC50 was in the range of 250 to 500 nM.

For the compound `CC(C)c1ccc(Nc2ncc(C#N)c(NC3CC(C)(C)NC(C)(C)C3)n2)cc1-n1cnnn1` [Compound I-11, 2-(4-Isopropyl-3-tetrazol-1-yl-phenylamino)-4-(2,2,6,6-tetramethyl-piperidin-4-ylamino)-pyrimidine-5-carbonitrile], the IC50 was less than 250 nM.

Turning to `CC1(C)CC(Nc2nc(Nc3cc(-n4cnnn4)c(C4CC4)cc3F)ncc2F)CC(C)(C)N1` [Compound I-12, N2-(4-Cyclopropyl-2-fluoro-5-tetrazol-1-yl-phenyl)-5-fluoro-N4-(2,2,6,6-tetramethyl-piperidin-4-yl)-pyrimidine-2,4-diamine], the IC50 was less than 250 nM.

As for `CC1(C)CC(Nc2nc(Nc3cc(-n4cnnn4)ccc3F)ncc2F)CC(C)(C)N1` [Compound I-13, 5-Fluoro-N2-(2-fluoro-5-tetrazol-1-yl-phenyl)-N4-(2,2,6,6-tetramethyl-piperidin-4-yl)-pyrimidine-2,4-diamine], the IC50 is less than 250 nM.

As to `CN1C(C)(C)CC(Nc2nc(Nc3cc(-n4cnnn4)ccc3F)ncc2F)CC1(C)C` [Compound I-14, 5-Fluoro-N2-(2-fluoro-5-tetrazol-1-yl-phenyl)-N4-(1,2,2,6,6-pentamethyl-piperidin-4-yl)-pyrimidine-2,4-diamine], the IC50 was less than 250 nM.

In the case of `CC1(C)CC(Nc2nc(Nc3ccc(C4CC4)c(-n4nnnc4C(F)(F)F)c3)ncc2F)CC(C)(C)N1` [Compound I-15, N2-[4-Cyclopropyl-3-(5-trifluoromethyl-tetrazol-1-yl)-phenyl]-5-fluoro-N4-(2,2,6,6-tetramethyl-piperidin-4-yl)-pyrimidine-2,4-diamine], the IC50 was less than 250 nM.

For `CC(C)c1nnnn1-c1cc(Nc2ncc(F)c(NC3CC(C)(C)NC(C)(C)C3)n2)c(F)cc1C1CC1` [Compound I-16, N2-(4-cyclopropyl-2-fluoro-5-(5-isopropyl-1H-tetrazol-1-yl)phenyl)-5-fluoro-N4-(2,2,6,6-tetramethylpiperidin-4-yl)pyrimidine-2,4-diamine], the IC50 was less than 250 nM.

`CC1(C)CC(Nc2nc(Nc3cc(-n4nnnc4C4CC4)c(C4CC4)cc3F)ncc2F)CC(C)(C)N1` [Compound I-17, N2-(4-cyclopropyl-5-(5-cyclopropyl-1H-tetrazol-1-yl)-2-fluorophenyl)-5-fluoro-N4-(2,2,6,6-tetramethylpiperidin-4-yl)pyrimidine-2,4-diamine]: the IC50 was less than 250 nM.

`Cc1nnnn1-c1cc(Nc2ncc(F)c(NC3CC(C)(C)NC(C)(C)C3)n2)c(F)cc1C1CC1` [Compound I-18, N2-(4-cyclopropyl-2-fluoro-5-(5-methyl-1H-tetrazol-1-yl)phenyl)-5-fluoro-N4-(2,2,6,6-tetramethylpiperidin-4-yl)pyrimidine-2,4-diamine]: the IC50 is less than 250 nM.

Take `CC1(C)CC(Nc2nc(Nc3cc(-n4nnnc4C(F)(F)F)c(C4CC4)cc3F)ncc2F)CC(C)(C)N1` [Compound I-19, N2-(4-cyclopropyl-2-fluoro-5-(5-(trifluoromethyl)-1H-tetrazol-1-yl)phenyl)-5-fluoro-N4-(2,2,6,6-tetramethylpiperidin-4-yl)pyrimidine-2,4-diamine]: the IC50 is less than 250 nM.

As for `CC1(C)CC(Nc2nc(Nc3cc(-n4nnnc4CF)c(C4CC4)cc3F)ncc2F)CC(C)(C)N1` [Compound I-20, N2-(4-cyclopropyl-2-fluoro-5-(5-(fluoromethyl)-1H-tetrazol-1-yl)phenyl)-5-fluoro-N4-(2,2,6,6-tetramethylpiperidin-4-yl)pyrimidine-2,4-diamine], the IC50 was less than 250 nM.

These data come from US9181222B2, “Protein kinase C inhibitors and uses thereof” (Rigel Pharmaceuticals, Inc., priority 2010, dated 2015).
